From patent US12492196B2, “Thienyloxazolones and analogues” (Bayer Aktiengesellschaft, priority 2019, dated 2025) come the findings set out here.

In data set [1] the test system is Colletotrichum lindemuthianum. As to the kind of experiment: In vivo preventive test on Colletotrichum lindemuthianum (Antrachnose on bean). Particulars: for pest or weed control at 31 ppm / pest or weed control at 500 ppm: Colletotrichum lindemuthianum, 144 h, bean, evaluated 6 days after inoculation, read-out: efficacy; for pest or weed control at 31 ppm: 31 ppm of active ingredient; for pest or weed control at 500 ppm: 500 ppm of active ingredient. As for the experimental part: The tested active ingredients were prepared by homogenization in a mixture of acetone/Dimethyl sulfoxide/Tween®, and then diluted with water to obtain the desired active material concentration. The young plants of bean were treated by spraying the active ingredient prepared as described above. Control plants were treated only with an aqueous solution of acetone/Dimethyl sulfoxide/Tween®.
After 72 hours, the plants were contaminated by spraying the leaves with an aqueous suspension of Colletotrichum lindemuthianum spores. The contaminated bean plants were incubated for 24 hours at 20° C. and at 100% relative humidity and then for 5 days at 20° C. and at 90% relative humidity.
The test was evaluated 6 days after the inoculation. 0% means an efficacy which corresponds to that of the control plants while an efficacy of 100% means that no disease was observed.
Compound CMP1 was tested in an in vivo preventive test on Colletotrichum lindemuthianum (Antrachnose on bean) in the same conditions as described in Example D.

Data set [2] concerns Xanthomonas campestris pv. campestris. Briefly: In vivo preventive test on Xanthomonas campestris pv. campestris (black rot on cabbage). Particulars: for pest or weed control at 31 ppm / pest or weed control at 125 ppm: Xanthomonas campestris, cabbage, evaluated 8 or 10 days after inoculation, read-out: efficacy; for pest or weed control at 31 ppm: 31 ppm of active ingredient; for pest or weed control at 125 ppm: 125 ppm of active ingredient. As for the experimental part:
(§1) The tested active ingredients were prepared by homogenization in a mixture of acetone/Dimethyl sulfoxide/Tween®, and then diluted with water to obtain the desired active material concentration.
(§2) The young plants of cabbage were treated by spraying the active ingredient prepared as described above. Control plants were treated only with an aqueous solution of acetone/Dimethyl sulfoxide/Tween®.
After 72 hours, the plants were contaminated by spraying the leaves with an aqueous bacteria suspension of Xanthomonas campestris pv. campestris. The contaminated cabbage plants were incubated for 8 or 10 days at 27° C. at 95% relative humidity.
The test was evaluated 8 or 10 days after the inoculation. 0% means an efficacy which corresponds to that of the control plants while an efficacy of 100% means that no disease was observed.
Compound CMP1 was tested in an in vivo preventive test on Xanthomonas campestris pv. campestris (black rot on cabbage) in the same conditions as described in Example F.

In a further data set the test system is Uromyces appendiculatus. As to the kind of experiment: In vivo preventive test on Uromyces appendiculatus (bean rust). Particulars: for pest or weed control at 31 ppm / pest or weed control at 125 ppm / pest or weed control at 500 ppm: Uromyces appendiculatus, 240 h, bean, evaluated 10 days after inoculation, read-out: efficacy; for pest or weed control at 31 ppm: 31 ppm of active ingredient; for pest or weed control at 125 ppm: 125 ppm of active ingredient; for pest or weed control at 500 ppm: 500 ppm of active ingredient. As for the experimental part:
as §1
The young plants of bean were treated by spraying the active ingredient prepared as described above.
Control plants were treated only with an aqueous solution of acetone/Dimethyl sulfoxide/Tween®.
After 72 hours, the plants were contaminated by spraying the leaves with an aqueous suspension of Uromyces appendiculatus spores. The contaminated bean plants were incubated for 24 hours at 20° C. and at 100% relative humidity and then for 9 days at 20° C. and at 70-80% relative humidity.
The test was evaluated 10 days after the inoculation. 0% means an efficacy which corresponds to that of the control plants while an efficacy of 100% means that no disease was observed.
Compound CMP1 was tested in an in vivo preventive test on Uromyces appendiculatus (bean rust) in the same conditions as described in Example G.

Data set [3] can be described thus: Log P by HPLC on reversed phase columns (EEC directive 79/831 Annex V.A8). It is filed as physicochemical. As for the experimental part:
In the above table, measurement of Log P values was performed according to EEC directive 79/831 Annex V.A8 by HPLC (High Performance Liquid Chromatography) on reversed phase columns with the following methods: • [^a] Log P value is determined by measurement of LC-UV, in an acidic range, with 0.1% formic acid in water and acetonitrile as eluent (linear gradient from 10% acetonitrile to 95% acetonitrile). • [^b] Log P value is determined by measurement of LC-UV, in a neutral range, with 0.001 molar ammonium acetate solution in water and acetonitrile as eluent (linear gradient from 10% acetonitrile to 95% acetonitrile). • [^c] Log P value is determined by measurement of LC-UV, in an acidic range, with 0.1% phosphoric acid and acetonitrile as eluent (linear gradient from 10% acetonitrile to 95% acetonitrile).
If more than one Log P value is available within the same method, all the values are given and separated by “+”.
Calibration was done with straight-chain alkan2-ones (with 3 to 16 carbon atoms) with known Log P values (measurement of Log P values using retention times with linear interpolation between successive alkanones). Lambda-max-values were determined using UV-spectra from 200 nm to 400 nm and the peak values of the chromatographic signals.

Data set [4] has as its system salicylate responsive promoter sequence of the PR1 (pathogenesis-related protein I) gene (AT2G14610). Briefly: Induction of defense gene expression in Arabidopsis thaliana (PR1 promoter-GFP reporter plants). It is filed as in vivo. Particulars: 72 h, 3rd day after spraying, mock treated leaves set as 1.00, read-out: relative fluorescence value; for fold induction at 75 ppm: 75 ppm of compound. As for the experimental part: Arabidopsis thaliana reporter plants containing the coding sequence of a green fluorescent protein (GFP) linked to the salicylate responsive promoter sequence of the PR1 (pathogenesis-related protein I) gene (AT2G14610) were grown for five days and then sprayed with compounds. On the 3rd day after spraying, plant fluorescence was assessed with a MacroFluo instrument from Leica Microsystems (Wetzlar, Germany). Fluorescences were quantified with the Meta-Morph Microscopy Automation & Image Analysis Software (Molecular Devices, Sunnyvale, Calif., United States).
Background fluorescence in mock treated leaves was set as 1.00.

Data set [5] has as its system Colletotrichum lindemuthianum. As to the kind of experiment: Colletotrichum lindemuthianum in vitro cell test. The settings on record: 144 h, 20 ppm of active ingredient, 6 days incubation, read-out: efficacy (direct activity, inhibition of fungal growth). It is filed as cell-based. As for the experimental part:
Solvent: DMSO Culture medium: 14.6 g anhydrous D-glucose (VWR), 7.1 g Mycological Peptone (Oxoid), 1.4 g granulated Yeast Extract (Merck), QSP 1 liter Inoculum: spores suspension Fungicides were solubilized in DMSO and the solution used to prepare the required range of concentrations. The final concentration of DMSO used in the assay was ≤1%. A spore suspension of C. lindemuthianum was prepared and diluted to the desired spore density. Fungicides were evaluated for their ability to inhibit spores germination and mycelium growth in liquid culture assay. The compounds were added in the desired concentration to the culture medium with spores. After 6 days incubation, fungi-toxicity of compounds was determined by spectrometric measurement of mycelium growth. Inhibition of fungal growth was determined by comparing the absorbance values in wells containing the fungicides with the absorbance in control wells without fungicides.

Data set [6] concerns Xanthomonas campestris pv. campestris. As to the kind of experiment: Xanthomonas campestris pv. campestris in vitro cell test. The class given is cell-based. Particulars: 20 ppm of active ingredient, 24 h incubation, read-out: efficacy (direct activity, inhibition of bacteria growth). As for the experimental part:
Solvent: DMSO Culture medium: LB broth medium (Luria Broth Miller) Sigma Inoculum: bacteria suspension Compounds were solubilized in DMSO and the solution used to prepare the required range of concentrations. The final concentration of DMSO used in the assay was ≤1%. Inoculum was prepared from a pre-culture of bacteria grown in liquid medium and diluted to the desired optical density (OD). Compounds were evaluated for their ability to inhibit bacteria growth in liquid culture assay. The compounds were added in the desired concentrations to culture medium containing the bacteria suspension. After 24 h of incubation, the efficacy of compounds was determined by spectrometric measurement of bacteria growth. Inhibition was determined by comparing the absorbance values in wells containing the compounds with the absorbance in control wells without active ingredients.

The test system of a further data set is Peronospora parasitica. As to the kind of experiment: In vivo preventive test on Peronospora parasitica (crucifer downy mildew). The settings on record: Hyaloperonospora parasitica, 120 h; 125 ppm of active ingredient; cabbage; evaluated 5 days after inoculation; read-out: efficacy. As for the experimental part:
as §1, §2
After 72 hours, the plants were contaminated by spraying the leaves with an aqueous suspension of Peronospora parasitica spores. The contaminated cabbage plants were incubated for 5 days at 20° C. and at 100% relative humidity.
The test was evaluated 5 days after the inoculation. 0% means an efficacy which corresponds to that of the control plants while an efficacy of 100% means that no disease was observed.

Setting [7] is: reversed phase HPLC columns, method [a]: LC-UV, acidic range, 0.1% formic acid in water and acetonitrile as eluent.

Marks after values point to notes of the source that are not given here.

For the molecule `O=C1OC(c2cc(Br)c(Br)s2)=NC12CC2` [CMP1, reference compound], the “Efficacy (%) at 31 ppm” value was 19% in data set [1] (31 ppm, conditions of Example D); 35* % in data set [2] (31 ppm, arithmetic mean of 4 tests, conditions of Example F); 32* % with Uromyces appendiculatus (31 ppm, arithmetic mean of 3 tests, conditions of Example G). In addition, the pest or weed control at 31 ppm in data set [1] was < 20%; in data set [2], < 40%; in the data set on Uromyces appendiculatus it was < 40%. Further, the “Efficacy (%) at 125 ppm” value in data set [2] (125 ppm, arithmetic mean of 4 tests, conditions of Example F) is 37* %; in the data set on Uromyces appendiculatus (125 ppm, arithmetic mean of 3 tests, conditions of Example G), 42* %. Besides, the values for the pest or weed control at 125 ppm (in data set [2]; in the data set on Uromyces appendiculatus) were < 40% and 42%, respectively.
On to `Cc1c(C2=NC3(CC3)C(=O)O2)sc(C#N)c1Br` [I.06, 3-bromo-4-methyl-5-(7-oxo-6-oxa-4-azaspiro[2.4]hept-4-en-5-yl)thiophene-2-carbonitrile], for which, in data set [3] (given in preparation examples, method not marked), the chromatographic logP was found to be 3.37. Also, in data set [4], the fold induction at 75 ppm was > 2. Moreover, the fold induction at 300 ppm in data set [4] was > 2. The inhibition at 20 ppm in data set [5] and in data set [6] was ≤ 30% throughout. Moreover, the pest or weed control at 500 ppm (in data set [1]; in the data set with Uromyces appendiculatus) was 90 to 100% throughout. Further, the pest or weed control at 125 ppm in the data set on Peronospora parasitica was 90 to 100%; in data set [2], 90 to 100%; in the data set on Uromyces appendiculatus it was 70 to 79%. The pest or weed control at 31 ppm fell in the range of 90 to 100% in data set [2] and 70 to 79% in the data set on Uromyces appendiculatus.
For the molecule `O=C1OC(c2sc(Cl)c(Br)c2Br)=NC12CC2` [I.08], in data set [3] (setting [7]), the chromatographic logP was found to be 4.12. Moreover, in data set [4], the fold induction at 75 ppm was > 2. Besides, the fold induction at 300 ppm in data set [4] was > 2. For the same molecule, the inhibition at 20 ppm in data set [5] and in data set [6] was ≤ 30% throughout. Further, the pest or weed control at 500 ppm (in data set [1]; in the data set on Uromyces appendiculatus) was 90 to 100% each time. The pest or weed control at 125 ppm in the data set on Peronospora parasitica lay within 90 to 100%; in data set [2] it was 70 to 79%; in the data set with Uromyces appendiculatus, 90 to 100%. Besides, the pest or weed control at 31 ppm lay in the range of 80 to 89% in data set [2] and 90 to 100% with Uromyces appendiculatus.
In data set [3] (setting [7]), `O=C1OC(c2sc(Cl)c(Br)c2Cl)=NC12CC2` [I.09] gave a chromatographic logP of 4.01. For the same molecule, the fold induction at 75 ppm in data set [4] is > 2. Besides, the fold induction at 300 ppm in data set [4] was > 2. Further, the inhibition at 20 ppm in data set [5] and in data set [6] was ≤ 30% each time. Also, the pest or weed control at 31 ppm was in the range of 70 to 79% in data set [1], 70 to 79% in data set [2] and 90 to 100% in the data set with Uromyces appendiculatus. Besides, the pest or weed control at 500 ppm (in data set [1]; in the data set with Uromyces appendiculatus) was 90 to 100% each time. In addition, the pest or weed control at 125 ppm with Peronospora parasitica and in the data set with Uromyces appendiculatus was 90 to 100% in each case.
`O=C1OC(c2sc(Br)c(Br)c2F)=NC12CCC2` [I.13]: the chromatographic logP in data set [3] (setting [7]) was 4.02. In addition, the inhibition at 20 ppm in data set [5] and in data set [6] was ≤ 30% in each case. In addition, the pest or weed control at 500 ppm (in data set [1]; with Uromyces appendiculatus) was 90 to 100% throughout. In addition, the pest or weed control at 125 ppm lay within 90 to 100% in the data set on Peronospora parasitica, 80 to 89% in data set [2] and 90 to 100% with Uromyces appendiculatus. In data set [2], the pest or weed control at 31 ppm was 90 to 100%.
Regarding `O=C1OC(c2sc(Cl)c(Cl)c2Br)=NC12CCC2` [I.22], the chromatographic logP in data set [3] (setting [7]) came out at 4.55. Further, the inhibition at 20 ppm in data set [5] and in data set [6] was ≤ 30% in each case. For the same molecule, the figures for the pest or weed control at 31 ppm (in data set [1]; in the data set with Uromyces appendiculatus) were 80 to 89% and 90 to 100%, respectively. For the same molecule, the pest or weed control at 125 ppm with Peronospora parasitica and in the data set on Uromyces appendiculatus was 90 to 100% in each case.
`O=C1OC(c2sc(Cl)c(Br)c2Cl)=NC12CCC2` [I.25] displayed a chromatographic logP in data set [3] (setting [7]) of 4.47. Further, the inhibition at 20 ppm in data set [5] and in data set [6] was ≤ 30% in each case. Also, the pest or weed control at 31 ppm in data set [1] is 70 to 79%; with Uromyces appendiculatus, 90 to 100%. Besides, the pest or weed control at 125 ppm in the data set with Uromyces appendiculatus was 90 to 100%.
The molecule `O=C1OC(c2cc(Br)c(C(F)(F)F)s2)=NC12CC2` [I.26] showed a chromatographic logP in data set [3] (setting [7]) of 3.98. Also, the pest or weed control at 500 ppm in data set [1] was 70 to 79%; in the data set with Uromyces appendiculatus, 90 to 100%. Moreover, in the data set with Peronospora parasitica, the pest or weed control at 125 ppm lay in the range of 90 to 100%. Further, the pest or weed control at 31 ppm in data set [2] fell in the range of 70 to 79%.

The term chromatographic logP denotes lipophilicity estimated from chromatographic retention. Lower therefore signals lower lipophilicity. Usually inhibition stands for the percentage by which the read-out fell short of the control.
